This note sets out measurements from patent US20120129875A1, “SUBSTITUTED QUINAZOLINES AS FUNGICIDES” (SYNGENTA CROP PROTECTION, LLC, priority 2009, published 2012).

Holding throughout (format): in vivo
The subject of assay [1] is Pyrenophora teres (Helminthosporium teres). The experiment in a line: Pyrenophora teres (Helminthosporium teres) / barley / preventative (net blotch on barley). As to conditions: barley plants cv. Regina, inoculated 2 days after application, vs untreated control, read-out: disease control. Here is the method: Pyrenophora teres (Helminthosporium teres)/Barley/Preventative (Net Blotch on Barley) 1-week old barley plants cv. Regina are treated with the formulated test compound in a spray chamber. The test plants are inoculated by spraying them with a spore suspension 2 days after application. The inoculated test plants are incubated at 20° C. and 95% rh and the percentage leaf area covered by disease is assessed when an appropriate level of disease appears on untreated check plants (5-7 days after application).

The next assay deals with Alternaria solani. Put plainly: Alternaria solani / tomato / preventative (Alternaria on tomato). The note with it: tomato plants cv. Roter Gnom, inoculated two days after application, vs untreated control, read-out: disease control. On the procedure: Alternaria solani/Tomato/Preventative (Alternaria on Tomato) 4-week old tomato plants cv. Roter Gnom are treated with the formulated test compound in a spray chamber. The test plants are inoculated by spraying them with a spore suspension two days after application. The inoculated test plants are incubated at 22/18° C. (day/night) and 95% rh in a greenhouse and the percentage leaf area covered by disease is assessed when an appropriate level of disease appears on untreated check plants (5-7 days after application).

A further assay relates to Plasmopara viticola. Put plainly: Plasmopara viticola / grape / preventative (grape downy mildew). As to conditions: grape seedlings cv. Gutedel, inoculated one day after application, vs untreated control, read-out: disease control. Here is the method: Plasmopara viticola/Grape/Preventative (Grape Downy Mildew)
5-week old grape seedlings cv. Gutedel are treated with the formulated test compound in a spray chamber. The test plants are inoculated by spraying a sporangia suspension on their lower leaf surface one day after application. The inoculated test plants are incubated at 22° C. and 100% rh in a greenhouse and the percentage leaf area covered by disease is assessed when an appropriate level of disease appears on untreated check plants (6-8 days after application).

In assay [2] the test system is Phaeosphaeria nodorum (Septoria nodorum). The experiment in a line: Phaeosphaeria nodorum (Septoria nodorum) / wheat / leaf disc preventative (glume blotch). As to conditions: Parastagonospora nodorum, foliar, wheat leaf segments cv. Kanzler on agar, inoculated 2 days after application, vs untreated control, read-out: disease control. On the procedure: Phaeosphaeria nodorum (Septoria nodorum)/Wheat/Leaf Disc Preventative (Glume Blotch) Wheat leaf segments cv. Kanzler are placed on agar in a multiwell plate (24-well format) and sprayed with the formulated test compound diluted in water. The leaf disks are inoculated with a spore suspension of the fungus 2 days after application. The inoculated test leaf disks are incubated at 20° C. and 75% rh under a light regime of 12 h light/12 h darkness in a climate cabinet and the activity of a compound is assessed as percent disease control compared to untreated when an appropriate level of disease damage appears in untreated check leaf disks (5-7 days after application).

Consider `COc1ccccc1Oc1cccc(-c2ncc3ccccc3n2)n1` [4/15], for which the pest or weed control at 200 ppm in assay [1] is no less than 80%.

Consider `Cc1ccc(-c2cccc(-c3ncc4ccccc4n3)n2)c(C)c1` [2/94], for which the pest or weed control at 200 ppm with Alternaria solani and in the assay with Plasmopara viticola was no less than 80% each time. With `COc1ccc(-c2cccc(-c3ncc4ccccc4n3)n2)c(OC)c1` [2/33], the pest or weed control at 200 ppm with Alternaria solani is no less than 80%. In the case of `Cc1ccccc1-c1cccc(-c2ncc3ccccc3n2)n1` [2/4], the pest or weed control at 200 ppm in the assay on Alternaria solani is no less than 80%. As to `Cc1ccc(-c2ncc3ccccc3n2)nc1Sc1ccccc1` [9/6], the pest or weed control at 200 ppm (in the assay on Alternaria solani; in assay [1]) was no less than 80% in each case.

For `Fc1ccc(-c2cccc(-c3ncc4ccccc4n3)n2)c(F)c1` [2/28], the pest or weed control at 200 ppm (in the assay on Alternaria solani; with Plasmopara viticola; in assay [1]) was no less than 80% in each case. Consider `COc1ccc(Cl)cc1-c1nc(-c2ncc3ccccc3n2)ccc1C` [3/95], for which the pest or weed control at 200 ppm (with Alternaria solani; in the assay with Plasmopara viticola; in assay [1]) was no less than 80% each time. Take `Cc1ccc(F)c(-c2cccc(-c3ncc4ccccc4n3)n2)c1` [2/79]: the pest or weed control at 200 ppm with Plasmopara viticola was no less than 80%. Turning to `CSc1ccc(Oc2nc(-c3ncc4ccccc4n3)ccc2C)cc1` [5/4], the pest or weed control at 200 ppm with Alternaria solani and in the assay with Plasmopara viticola was no less than 80% in each case. Turning to `COc1ccc(C)cc1-c1cccc(-c2ncc3ccccc3n2)n1` [2/38], the pest or weed control at 200 ppm (in the assay on Alternaria solani; in assay [2]) was no less than 80% each time.

Take `Clc1ccccc1Oc1cccc(-c2ncc3ccccc3n2)n1` [4/23]: the pest or weed control at 200 ppm in assay [1] was no less than 80%.

Consider `Cc1ccc(-c2ncc3ccccc3n2)nc1Sc1ccccc1Cl` [9/7], for which the pest or weed control at 200 ppm (with Alternaria solani; in assay [1]) was no less than 80% throughout. On to `CCc1ccccc1-c1nc(-c2ncc3ccccc3n2)ccc1C` [3/37], for which the pest or weed control at 200 ppm in the assay with Alternaria solani and with Plasmopara viticola was no less than 80% in each case.

As for `COc1ccc(-c2nc(-c3ncc4ccccc4n3)ccc2C)cc1` [3/70], the pest or weed control at 200 ppm (with Alternaria solani; in assay [1]) was no less than 80% throughout. Turning to `Cc1ccc(-c2ncc3ccccc3n2)nc1C` [10/3], in the assay with Plasmopara viticola, the pest or weed control at 200 ppm is no less than 80%. `COc1cccc(F)c1-c1cccc(-c2ncc3ccccc3n2)n1` [2/70]: the pest or weed control at 200 ppm in the assay with Alternaria solani and in the assay on Plasmopara viticola was no less than 80% in each case. On to `Fc1ccc(Sc2cccc(-c3ncc4ccccc4n3)n2)cc1` [9/4], for which the pest or weed control at 200 ppm (in the assay on Alternaria solani; in assay [1]) was no less than 80% throughout. Turning to `COc1cccc(-c2nc(-c3ncc4ccccc4n3)ccc2C)c1` [3/84], the pest or weed control at 200 ppm (with Alternaria solani; in the assay on Plasmopara viticola; in assay [1]) was no less than 80% in each case. On to `Cc1ccc2nc(-c3ccc(C)c(-c4ccccc4)n3)ncc2c1` [11/4], for which the pest or weed control at 200 ppm (with Alternaria solani; in assay [1]) was no less than 80% in each case.

As for `Cc1cccc(-c2cccc(-c3ncc4ccccc4n3)n2)c1C` [2/9], the pest or weed control at 200 ppm (with Alternaria solani; with Plasmopara viticola; in assay [1]) was no less than 80% in each case. As to `c1cc(Oc2ccc3ccccc3c2)nc(-c2ncc3ccccc3n2)c1` [4/10], the pest or weed control at 200 ppm with Alternaria solani and with Plasmopara viticola was no less than 80% each time.

As for `Cc1ccc(-c2ncc3ccccc3n2)nc1-c1cc(Cl)cc(Cl)c1` [3/73], the pest or weed control at 200 ppm (in the assay with Plasmopara viticola; in assay [1]) was no less than 80% each time. As to `Cc1ccc(-c2nc(-c3ncc4ccccc4n3)ccc2C)cc1C` [3/11], the pest or weed control at 200 ppm in the assay on Alternaria solani and with Plasmopara viticola was no less than 80% throughout. For `COc1cccc(Sc2cccc(-c3ncc4ccccc4n3)n2)c1` [9/2], the pest or weed control at 200 ppm (in the assay on Alternaria solani; in the assay with Plasmopara viticola; in assay [1]) was no less than 80% in each case. As to `Cc1ccc(-c2ncc3cc(Cl)ccc3n2)nc1-c1ccccc1` [11/5], the pest or weed control at 200 ppm (with Plasmopara viticola; in assay [1]) was no less than 80% throughout. Regarding `Cc1ccc(-c2ncc3cc(N)ccc3n2)nc1-c1ccccc1` [11/2], the pest or weed control at 200 ppm in the assay on Plasmopara viticola was no less than 80%. On to `Cc1ccc(-c2ncc3ccccc3n2)nc1Cc1ccc(Cl)cc1` [7/18], for which the pest or weed control at 200 ppm (with Alternaria solani; in assay [1]) was no less than 80% throughout. Turning to `COc1cc(F)ccc1-c1cccc(-c2ncc3ccccc3n2)n1` [2/90], the pest or weed control at 200 ppm (with Alternaria solani; in the assay with Plasmopara viticola; in assay [1]) was no less than 80% in each case. As for `COc1ccc(F)cc1-c1cccc(-c2ncc3ccccc3n2)n1` [2/32], the pest or weed control at 200 ppm (in the assay with Alternaria solani; in assay [1]) was no less than 80% each time. As to `Fc1cc(F)c(-c2cccc(-c3ncc4ccccc4n3)n2)c(F)c1` [2/132], the pest or weed control at 200 ppm in assay [2] is no less than 80%. Turning to `COC(=O)c1ccccc1-c1cccc(-c2ncc3ccccc3n2)n1` [2/130], in assay [2], the pest or weed control at 200 ppm was no less than 80%.

On to `Clc1ccccc1Sc1cccc(-c2ncc3ccccc3n2)n1` [9/8], for which the pest or weed control at 200 ppm (in the assay with Alternaria solani; in assay [1]) was no less than 80% throughout.

Take `COc1ccc(-c2cccc(-c3ncc4ccccc4n3)n2)c(C)c1` [2/66]: the pest or weed control at 200 ppm (in the assay on Alternaria solani; in assay [2]) was no less than 80% each time.

Take `Cc1cc(F)ccc1-c1nc(-c2ncc3ccccc3n2)ccc1C` [3/17]: the pest or weed control at 200 ppm in the assay on Alternaria solani is no less than 80%.

Consider `COc1cccc(OC)c1-c1nc(-c2ncc3ccccc3n2)ccc1C` [3/135], for which the pest or weed control at 200 ppm in assay [2] is no less than 80%. In the case of `Cc1ccccc1Oc1cccc(-c2ncc3ccccc3n2)n1` [4/22, 2-(6-o-tolyloxypyridin-2-yl)-quinazoline], the pest or weed control at 200 ppm (in the assay with Alternaria solani; in the assay with Plasmopara viticola; in assay [1]) was no less than 80% each time. On to `COC(=O)c1ccccc1-c1nc(-c2ncc3ccccc3n2)ccc1C` [3/128], for which the pest or weed control at 200 ppm in assay [2] was no less than 80%.

Turning to `CCCCc1nc(-c2cccc(Cc3ccccc3)n2)nc2ccccc12` [12/5], the pest or weed control at 200 ppm in assay [2] was no less than 80%. Regarding `COc1ccc(OC)c(-c2cccc(-c3ncc4ccccc4n3)n2)c1` [2/46], the pest or weed control at 200 ppm with Alternaria solani and in the assay on Plasmopara viticola was no less than 80% in each case. Regarding `Cc1ccc(-c2ncc3ccccc3n2)nc1-c1cccc(C#N)c1` [3/132], the pest or weed control at 200 ppm in assay [2] is no less than 80%. In the case of `CCOc1ccccc1-c1cccc(-c2ncc3ccccc3n2)n1` [2/30], the pest or weed control at 200 ppm in the assay on Alternaria solani and in the assay on Plasmopara viticola was no less than 80% throughout. Consider `Fc1c(Cl)cccc1Cc1cccc(-c2ncc3ccccc3n2)n1` [6/22], for which the pest or weed control at 200 ppm in assay [2] was no less than 80%.

In the case of `Cc1ccc(-c2cccc(-c3ncc4ccccc4n3)n2)c2ccccc12` [2/108], in assay [2], the pest or weed control at 200 ppm is no less than 80%.

For the compound `OCc1cc(F)ccc1-c1cccc(-c2ncc3ccccc3n2)n1` [2/117], in assay [2], the pest or weed control at 200 ppm is no less than 80%. The same measure, in the same setting: in the case of `Clc1cccc(-c2cccc(-c3ncc4ccccc4n3)n2)c1Cl` [2/50] it was no less than 80%. In the case of `Cc1ccc(-c2ncc3ccccc3n2)nc1Oc1cccc2ccccc12` [5/13], the pest or weed control at 200 ppm (in the assay on Alternaria solani; in assay [1]) was no less than 80% in each case.

Regarding `Cc1ccc(-c2ncc3ccccc3n2)nc1-c1ccc(CO)cc1` [3/139], in assay [2], the pest or weed control at 200 ppm was no less than 80%. In the case of `COc1ccccc1-c1cccc(-c2ncc3ccccc3n2)n1` [2/15], the pest or weed control at 200 ppm in the assay on Alternaria solani is no less than 80%. Take `CC(=O)c1ccccc1-c1cccc(-c2ncc3ccccc3n2)n1` [2/105]: the pest or weed control at 200 ppm in assay [2] was no less than 80%. `CC(=O)c1ccccc1-c1nc(-c2ncc3ccccc3n2)ccc1C` [3/108]: in assay [2], the pest or weed control at 200 ppm is no less than 80%. With `Cc1c(F)cccc1-c1cccc(-c2ncc3ccccc3n2)n1` [2/124], the pest or weed control at 200 ppm in assay [2] is no less than 80%. Regarding `COc1cc(-c2cccc(-c3ncc4ccccc4n3)n2)c(OC)cc1C` [2/121], in assay [2], the pest or weed control at 200 ppm was no less than 80%. On to `c1ccc(-c2ccccc2Cc2cccc(-c3ncc4ccccc4n3)n2)cc1` [6/21], for which the pest or weed control at 200 ppm in assay [2] is no less than 80%.

For `O=Cc1c(F)ccc(-c2cccc(-c3ncc4ccccc4n3)n2)c1F` [2/110], the pest or weed control at 200 ppm in assay [2] was no less than 80%. Take `C(=C/c1cccc(-c2ncc3ccccc3n2)n1)/c1ccccc1` [10/21]: the pest or weed control at 200 ppm in assay [2] is no less than 80%. Same read-out and setting: in the case of `N#Cc1ccccc1Cc1cccc(-c2ncc3ccccc3n2)n1` [6/32] it was no less than 80%.
